According to paper PMC12751338, “Biochemical and functional characterization of orf virus decapping protein OV71” (Virology Journal, 2025):

Columns and labels:
OV71 (ORFV071; his-OV71) = target: T1, OV71 (ORFV071; his-OV71) (Orf virus strain SA00, UniProt Q6TVP9); assay: competition in decapping of radiolabeled capped RNA, TLC; assay type: biochemical; details: 206-nt cap-labeled RNA substrate; 4 pmol enzyme; 2 mM MgCl2, 0.5 mM MnCl2, pH 7.5, 37 °C; added product as competitor
T1 construct: His-tagged, pET24a (NdeI/XhoI), E. coli BL21(DE3), Talon cobalt resin; approx. 25 kDa

[1] = system: his-OV71 (Orf virus (Taiping strain)); assay: competition; details: EMSA: 20 mM HEPES, 10 mM EDTA, 1 M KCl, 1 mM DTT, 80 ug/mL BSA, 50% glycerol (so in the source), on ice 15 min, 0.05 pmol RNA. Pulldown: 100 mM K acetate

| Molecule | relative decapping ratio (OV71 (ORFV071; his-OV71)) | IC50 [1] [pmol] |
| --- | --- | --- |
| C[n+]1cn([C@@H]2O[C@H](COP(=O)(O)OP(=O)(O)O)[C@@H](O)[C@H]2O)c2nc(N)[nH]c(=O)c21 [m^7GDP] | decapping product m^7GDP modestly inhibited the decapping (Fig. 3D and E), indicating weak affinity | – |
| 206 nt uncapped RNA competitor | – | 40 |
